Experimental data published in patent publication US8053573B2, “Monomer 5, 6-diphenyl-1.2.4-traizinic derivatives and the use thereof” (Pierre Fabre Dermo-Cosmetique, priority 2004, dated 2011).

Key:
Format in all cases: physicochemical
[1] = Photostability in solution in a chemical solvent (Suntest CPS+); conditions: 25 μg deposited from methanol, absorbance vs non-irradiated control, in % (unit assumed); for Photostability at 10 MED mean: Suntest irradiation 10 MED; for Photostability at 20 MED mean: Suntest irradiation 20 MED
Source text: A Suntest CPS+ (Atlas, Linsengenicht/Altenhasslan, Germany) was used. The Suntest makes it possible to reproduce the solar spectrum and thus to carry out exposures inside at any time without weather constraints.
The radiance of the solar simulator was carefully measured with a spectroradiometer (MSS 2044, Bielefeld, Germany). UVB and UVA intensities were 0.49 mW/cm^2 and 6.32 mW/cm^2, respectively. The MED value defined by COLIPA is 5.6 J/cm^2 in total UV (22). The UV total (UVA+UVB) accounts for 14.8% of the energy delivered by the lamp (power 460 W/m^2). An irradiation dose equivalent to 1 MED corresponds to 37.83 J/cm^2 (in total spectrum) delivered by the lamp.
The Suntest test duration is calculated using the following formula: t=H/E with: […]
The solutions of the compounds are prepared at a concentration of 500 μg/ml in methanol. 50 μl (25 μg) of each solution are deposited in a crystallizer, then irradiated in the Suntest at 5, 10 and/or 20 MED. A non-irradiated control is prepared (deposit of 50 μl of solution and addition of 2.450 ml of methanol). The solvent evaporates during irradiation and the products are taken up in 2.5 ml of methanol. After irradiation, the absorbance of each solution is measured with the UV-visible spectrophotometer (Varian CARY 50 Scan).

[2] = Spectral characteristics: molar extinction coefficient and specific absorbance; conditions: ethyl acetate, 10 μg/ml; for Maximum specific absorbance UVA / Maximum specific absorbance UVB: A1cm^1%
Source text: The calculation of the molar extinction coefficient (ε) is made from the Beer-Lambert law:
[formula] Wherein: A=absorbance I0=intensity of the incident light I=intensity of the transmitted light ε=molar extinction (or molar absorbance) coefficient in M^−1 cm^−1 l=path length in cm c=concentration in mol/l
The molar extinction coefficient can be expressed with respect to a given mass of the product. It thus makes it possible to be able to compare the coefficients of extinction between products for the same given quantity. This quantity is 1% by weight. The molar extinction coefficient thus becomes the specific absorbance (A1cm^1%).
[formula] Wherein: A1cm^1%=specific absorbance ε=molar extinction coefficient M=molar mass
The spectral characteristics of the compounds in comparison with commercial filters at a concentration of 10 μg/ml are summarized in tables 2-1 and 2-2.
Procedure: The products are dissolved in ethyl acetate to a concentration of 10 μg/ml. The spectra are measured using a dual-beam spectrophotometer (Varian CARY 50 Scan) between 290 nm and 400 nm.

[3] = as above; conditions: ethyl acetate, 10 μg/ml; for Maximum specific absorbance UVC: A1cm^1%
[4] = Spectral distribution in UVA and UVB (290-400 nm); conditions: range from 290 nm to 400 nm
Source text: The products tested are classified according to spectral distribution in UVA and UVB in a range from 290 nm to 400 nm.
It is possible to differentiate them according to their spectral distribution:
Products with a narrow spectrum: • Products absorbing in the range between 280 nm and 320 nm (UVB) • Products absorbing in the range between 320 nm and 400 nm (UVA) Products with a broad spectrum: • Products absorbing in UVB (280-320 nm) and UVA-II […] • Products covering UVB and UVA (280-400 nm).

[5] = In vitro SPF in a chemical solvent (Diffey and Robson); conditions: ethyl acetate solution, 10 μg/ml, transmittance 290-400 nm
Procedure: The in vitro methods of determining the protective effectiveness of sun products consist of measuring by transmission spectrophotometry the absorption spectrum of the filter in solution or of the product applied on a substrate with the aim of simulating the surface of the skin. The effectiveness against UVB and/or UVA rays, or the effect on the cutaneous response, are then determined by calculation, taking into account or not the UV radiation action spectrum for the damage considered.
The Sayre/Agin and Diffey/Robson method, used since the 1990s, involves a comparative measurement, with the aid of an integrating-sphere spectroradiometer, of the transition from 290 nm to 400 nm in 5 nm steps, the sample being subjected to UV radiation from a stable known source covering the whole of the UV spectrum (unfiltered xenon).
Diffey and Robson evaluate the erythemal response by the following calculation:
[formula] E(λ)=spectral irradiation in W(m^−2) (nm^−1) at 40° N sun at 20° zenith angle ε=erythematous capacity
The Diffey and Robson formula makes it possible to determine SPF from the measurement of transmittance between 290 nm and 400 nm. Transmittance is measured in solution in ethyl acetate at a concentration of 10 μg/ml using a UV-visible spectrophotometer (Varian CARY 50 Scan).

Row | SMILES | Photostability at 10 MED mean [1] | Photostability at 20 MED mean [1] | Maximum specific absorbance UVA [2] | Maximum molar extinction coefficient UVA [2] [M⁻¹ cm⁻¹] | Wavelength of maximum molar extinction coefficient UVA [2] | Wavelength of maximum specific absorbance UVA [2] | Maximum specific absorbance UVC [3] | Maximum molar extinction coefficient UVC [3] [M⁻¹ cm⁻¹] | Wavelength of maximum molar extinction coefficient UVC [3] | Wavelength of maximum specific absorbance UVC [3] | Spectral distribution [4] | Maximum specific absorbance UVB [2] | Maximum molar extinction coefficient UVB [2] | Wavelength of maximum molar extinction coefficient UVB [2] | Wavelength of maximum specific absorbance UVB [2] | SPF [5]
1 | Oc1ccccc1-c1nnc(-c2ccccc2)c(-c2ccccc2)n1 [JR67, 3-(2-hydroxyphenyl)-5,6-diphenyl-1,2,4-triazine] | – | – | 502 | 16300 | at 330 | at 330 | 811 | 26300 | at 280 | at 280 | – | – | – | – | – | –
2 | Oc1ccc(-c2nnc(-c3ccccc3)c(-c3ccccc3)n2)cc1 [JR68, 3-(4-hydroxyphenyl)-5,6-diphenyl-1,2,4-triazine] | 98.2 | 95.33 | 424 | 13800 | at 330 | at 330 | 702 | 22800 | at 280 | at 280 | absorb in UVB (280-320 nm) and UVA-II (280-340 nm) | – | – | – | – | –
3 | COc1ccc(-c2nnc(-c3ccccc3O)nc2-c2ccc(OC)cc2)cc1 [JR89, 3-(2-hydroxyphenyl)-5,6-bis(4-methoxyphenyl)-1,2,4-triazine] | 97.39 | 98.72 | 526 at | 20300 | at 335 | 335 | 502 | 19300 | at 280 | at 280 | absorb in UVB (280-320 nm) and UVA-II (280-340 nm) | – | – | – | – | –
4 | COc1ccc(-c2nnc(-c3ccc(C#N)cc3)nc2-c2ccc(OC)cc2)cc1 [JR107, 3-(4-cyanophenyl)-5,6-bis(4-methoxyphenyl)-1,2,4-triazine] | 58.45 | 47.81 | 498 at | 19600 | at 350 | 350 | 655 at | 25800 | at 270 | 270 | absorb in UVB and UVA | 688 at | 27100 at M^−1 cm^−1 | 300 | 300 | –
5 | COc1ccc(-c2nnc(-c3ccccc3C#N)nc2-c2ccc(OC)cc2)cc1 [JR114, 3-(2-cyanophenyl)-5,6-bis(4-methoxyphenyl)-1,2,4-triazine] | 92.07 | 91.43 | 661 | 26000 | at 325 | at 352 | – | – | – | – | absorb in UVB and UVA | – | – | – | – | –
6 | COc1ccc(-c2nnc(-c3cc(O)c(O)c(O)c3)nc2-c2ccc(OC)cc2)cc1 [JR115, 3-(3,4,5-hydroxyphenyl)-5,6-bis(4-methoxyphenyl)-1,2,4-triazine] | 57.63 | 46.42 | – | – | – | – | – | – | – | – | absorb in UVB (280-320 nm) and UVA-II (280-340 nm) | 747 | 34300 M⁻¹ cm⁻¹ | at 310 | at 310 | –

Continued, in another order:

Row | Photostability at 10 MED mean [1] | Photostability at 20 MED mean [1] | Maximum specific absorbance UVA [2] | Maximum molar extinction coefficient UVA [2] [M⁻¹ cm⁻¹] | Wavelength of maximum molar extinction coefficient UVA [2] | Wavelength of maximum specific absorbance UVA [2] | Maximum specific absorbance UVC [3] | Maximum molar extinction coefficient UVC [3] [M⁻¹ cm⁻¹] | Wavelength of maximum molar extinction coefficient UVC [3] | Wavelength of maximum specific absorbance UVC [3] | Spectral distribution [4] | Maximum specific absorbance UVB [2] | Maximum molar extinction coefficient UVB [2] | Wavelength of maximum molar extinction coefficient UVB [2] | Wavelength of maximum specific absorbance UVB [2] | SMILES | SPF [5]
7 | 82.86 | 57.37 | – | – | – | – | – | – | – | – | – | – | – | – | – | CCN(CC)c1ccc(-c2nnc(O)nc2-c2ccc(N(CC)CC)cc2)cc1 [JR18, 3-hydroxy-5,6-bis(4-diethylaminophenyl)-1,2,4-triazine] | –
8 | 44.51 | 30.83 | – | – | – | – | – | – | – | – | absorb in UVB | 982 | 29200 M⁻¹ cm⁻¹ | at 310 | at 310 | COc1ccc(-c2nnc(-c3ccc(OC)cc3)c(-c3ccc(OC)cc3)n2)cc1 [JR70, 3-(4-methoxyphenyl)-5,6-bis(4-methoxyphenyl)-1,2,4-triazine] | –
9 | 98.07 | 97.67 | 570 | 22469 | at 340 | at 340 | – | – | – | – | absorb in UVB and UVA | 721 | 28800 M⁻¹ cm⁻¹ | at 295 | at 295 | COc1ccc(-c2nnc(-c3cccc(C#N)c3)nc2-c2ccc(OC)cc2)cc1 [JR113, 3-(3-cyanophenyl)-5,6-bis(4-methoxyphenyl)-1,2,4-triazine] | 67.74
10 | – | – | 552 | 36400 | at 345 | at 345 | – | – | – | – | absorb in UVB and UVA | 556 | 36600 M⁻¹ cm⁻¹ | at 305 | at 305 | CC(C)(C)CC(C)(C)c1cc(Cc2cc(C(C)(C)CC(C)(C)C)cc(-n3nc4ccccc4n3)c2O)c(O)c(-n2nc3ccccc3n2)c1 [Tinosorb M ®, reference compound] | 54.07
